Data on 18 molecules can be found in PubChem BioAssay (NCI).

Among the test systems are UACC-257 melanoma; PC-3 prostate; DU-145 prostate; SW-620 colon; T-47D breast; 786-0 renal; UO-31 renal; CCRF-CEM leukemia.
Test in all cases: NCI-60 cell line screen, 48 h

Molecules are shown by their SMILES.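 Compound exposure: 48 hours, 5 concentrations, 96-well plates. GI50 marks 50% less growth. TGI: total growth inhibition.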

With `S=C(Cc1ccc2c(c1)Sc1ccccc1O2)N1CCOCC1`, the TGI with UACC-257 melanoma, in the assay with PC-3 prostate, in the assay with DU-145 prostate, in the assay on SW-620 colon, with T-47D breast and in the assay on 786-0 renal was above 100 µM in each case. This molecule also came in with a TGI with UO-31 renal above 100 µM.

As for `CC(C)NC(=O)OCc1c(COC(=O)NC(C)C)n(C)c2c1ccc1sccc12`, the TGI is 39.5 µM with UACC-257 melanoma; 43.7 µM in the assay on PC-3 prostate; 21.1 µM in the assay on DU-145 prostate; above 100 µM with SW-620 colon; 47.2 µM in the assay on T-47D breast; above 100 µM in the assay on CCRF-CEM leukemia. Besides, the TGI with 786-0 renal stood at 36.8 µM; with UO-31 renal it was 68.7 µM.

On to `CN(C)CCn1c(=O)c2ccc(NCCCN(C)CCCNc3ccc4c(=O)n(CCN(C)C)c(=O)n5c6ccc(O)cc6c(=O)c3c45)c3c(=O)c4cc(O)ccc4n(c1=O)c23`, for which the TGI with UACC-257 melanoma turned out to be 1.23 µM; in the assay with PC-3 prostate, 0.31 µM; in the assay with DU-145 prostate it was 0.655 µM; in the assay with T-47D breast, 10.2 µM; with CCRF-CEM leukemia it was 0.13 µM; with 786-0 renal, 1.05 µM. The TGI in the assay on UO-31 renal was 0.452 µM.

In the case of `O=C1C=CC2(O[C@H](c3ccccc3)[C@@H](c3ccccc3)O2)[C@H](Sc2ccccc2O)C1`, the TGI in the assay with UACC-257 melanoma was 1.71 µM; with PC-3 prostate it was 2.06 µM; in the assay with DU-145 prostate, 2.59 µM; in the assay with SW-620 colon it was above 100 µM; in the assay with 786-0 renal it was 0.356 µM; in the assay with UO-31 renal, 1.22 µM.

In the case of `O=C(c1ccco1)N(C(=O)N1CCCCC1)c1ccccc1`, the TGI with UACC-257 melanoma, in the assay on PC-3 prostate, in the assay on DU-145 prostate, in the assay with SW-620 colon, in the assay with CCRF-CEM leukemia and in the assay on 786-0 renal was above 100 µM each time. In the assay with UO-31 renal, this molecule gave a TGI above 100 µM.

Consider `COC(=O)/C=C(\C)CC/C=C(\C)CCC1OC1(C)C` (stereo unspecified), for which the TGI is 23.3 µM in the assay with UACC-257 melanoma; 17.4 µM in the assay with PC-3 prostate; 28.4 µM in the assay on SW-620 colon; 21.3 µM in the assay on CCRF-CEM leukemia; 23.6 µM in the assay on 786-0 renal; 20.8 µM in the assay with UO-31 renal.

Take `COc1cccc(C2c3cc4c(cc3OC(O)C2C)OCO4)c1OC` (stereo unspecified): the TGI in the assay with UACC-257 melanoma stood at 37.9 µM; in the assay with PC-3 prostate, 32.1 µM; in the assay with DU-145 prostate, 26.2 µM; with SW-620 colon it was 54 µM; in the assay with T-47D breast, 40.7 µM; with CCRF-CEM leukemia, 9.6 µM. This molecule also gave a TGI in the assay on 786-0 renal of 19.2 µM.

For `Nc1ncnc2c1nnn2C1C=CC(CP(=O)(O)O)C1` (stereo unspecified), the TGI in the assay with UACC-257 melanoma, with PC-3 prostate, in the assay with DU-145 prostate, in the assay with SW-620 colon, in the assay on T-47D breast and in the assay on 786-0 renal was above 100 µM in each case. Also, the TGI with UO-31 renal is above 100 µM.

With `c1ccc(C2=NC3OC2c2ccccc23)cc1` (stereo unspecified), the TGI in the assay on UACC-257 melanoma, in the assay on PC-3 prostate, with DU-145 prostate, with SW-620 colon, in the assay on T-47D breast and with CCRF-CEM leukemia was above 10 µM in each case. The same molecule displayed a TGI in the assay with 786-0 renal above 10 µM.

For `CCCCCCCCCCCCCCCCCCOc1ccccc1CC(=O)NCC[N+]1(C)CCOCC1`, the GI50 in the assay with UACC-257 melanoma is 18.9 µM; in the assay on SW-620 colon, 3.76 µM; in the assay with T-47D breast, 6.85 µM; in the assay with UO-31 renal, 5.83 µM. In addition, the TGI with UACC-257 melanoma stood at 35.3 µM; in the assay with SW-620 colon, 22.5 µM; in the assay on T-47D breast, 39.2 µM; in the assay with UO-31 renal, 37.2 µM.

For the molecule `CN(/N=C1\C(=O)Nc2ccccc21)c1ccccc1`, the TGI with UACC-257 melanoma, with PC-3 prostate, in the assay with DU-145 prostate, in the assay with SW-620 colon, with T-47D breast and in the assay on CCRF-CEM leukemia was above 100 µM throughout. The molecule also yielded a TGI with UO-31 renal above 100 µM.

Consider `Cc1ccc(-c2cc(-c3ccco3)c(C#N)c(=S)[nH]2)cc1`, for which the TGI was above 100 µM in the assay on PC-3 prostate; above 100 µM in the assay with DU-145 prostate; above 100 µM with SW-620 colon; 71.5 µM in the assay with T-47D breast; above 100 µM in the assay on CCRF-CEM leukemia; above 100 µM in the assay on 786-0 renal. In the assay on UO-31 renal, this molecule came in with a TGI above 100 µM.

In the case of `CC1CC(N2CCOCC2)=Nc2ccccc2N1C` (stereo unspecified), the TGI in the assay on UACC-257 melanoma, with PC-3 prostate, in the assay on DU-145 prostate, in the assay on SW-620 colon, in the assay on CCRF-CEM leukemia and with 786-0 renal was above 100 µM in each case. The TGI in the assay with UO-31 renal is above 100 µM.

For the molecule `CC(=O)O[C@@H](c1nccn1Cc1ccccc1)[C@H]1OC(C)(C)O[C@@H]1[C@H]1COC(C)(C)O1`, the TGI in the assay on UACC-257 melanoma, with PC-3 prostate, in the assay with DU-145 prostate, with SW-620 colon, in the assay on CCRF-CEM leukemia and in the assay with 786-0 renal was above 100 µM each time. In the assay with UO-31 renal, the TGI was above 100 µM.

Regarding `CC(C)C(Br)CCC1=CCC(Br)(Br)C1` (stereo unspecified), the TGI is 28.2 µM in the assay on UACC-257 melanoma; 28.5 µM with PC-3 prostate; 32.5 µM with DU-145 prostate; 12.2 µM in the assay on SW-620 colon; above 100 µM in the assay on CCRF-CEM leukemia; 29.6 µM with 786-0 renal. The molecule also returned a TGI with UO-31 renal of 21.9 µM.

In the case of `Cc1c2cccc-2c2cc(O)c3ccccc3c2n1-c1ccc(N(C)C)cc1`, the TGI in the assay with UACC-257 melanoma was above 100 µM; in the assay on PC-3 prostate, 23.9 µM; in the assay on SW-620 colon it was 53.6 µM; in the assay on T-47D breast, 0.829 µM; in the assay with CCRF-CEM leukemia, 32.8 µM; in the assay with 786-0 renal, 33.1 µM. This molecule registered a TGI in the assay on UO-31 renal of 24.8 µM.

As to `Cn1nc(-c2ccc(S(=O)(=O)/N=C(\NN)Nc3ccc(Cl)cc3)s2)cc1C(F)(F)F`, the TGI stood at 34 µM in the assay on UACC-257 melanoma; 31.2 µM in the assay with PC-3 prostate; 30.8 µM in the assay with DU-145 prostate; 36.9 µM in the assay with SW-620 colon; 27.6 µM with T-47D breast; 30.6 µM in the assay on 786-0 renal. Further, the TGI with UO-31 renal is 28 µM.

`CC(C)Oc1cccc(N2C(n3ccnc3)=Nc3ccncc3S2(=O)=O)c1`: the TGI with UACC-257 melanoma turned out to be 32 µM; in the assay on PC-3 prostate, 22.7 µM; in the assay on DU-145 prostate, 25 µM; in the assay with SW-620 colon, 40.1 µM; with T-47D breast it was 41.5 µM; in the assay on 786-0 renal it was 22.1 µM. The molecule further gave a TGI in the assay with UO-31 renal of 38.3 µM.
